Reference: PubChem BioAssay AID1963966 (Molecular Pharmacology Branch, DTP, NCI, 2024)
pIC50: −log10 of the molar value.

Test system: 935938-334-R-J1-PDC spheroids with HUVEC/MSC, viability
Experiment: Anticancer human tumor 935938-334-R-J1-PDC patient-derived small intestine adenocarcinoma cell line growth inhibition [PI3K]
Details: for pIC50: curve of first compound; for viability, T/C: stronger effect = lower value
Method in brief: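 Combination activity was assessed by viability in multicellular tumor spheroids carrying HUVEC and MSC components. Agents were tested with PI3K inhibitors from a Cmax-based top dose (or 10 microM) downward in half-log increments.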

[1] = second compound 0.0316 µM, first compound 0.0316 µM
[2] = second compound 0.0316 µM, first compound 0.1 µM
[3] = second compound 0.0316 µM, first compound 0.316 µM
[4] = second compound 0.0316 µM, first compound 1 µM
[5] = second compound 0.0316 µM, first compound 3.16 µM
[6] = second compound 0.0316 µM, first compound 10 µM
[7] = second compound 0.1 µM, first compound 0.0316 µM
[8] = second compound 0.1 µM, first compound 0.1 µM
[9] = second compound 0.1 µM, first compound 0.316 µM
[10] = second compound 0.1 µM, first compound 1 µM
[11] = second compound 0.1 µM, first compound 3.16 µM
[12] = second compound 0.1 µM, first compound 10 µM
[13] = second compound 0.316 µM, first compound 0.0316 µM
[14] = second compound 0.316 µM, first compound 0.1 µM
[15] = second compound 0.316 µM, first compound 0.316 µM
[16] = second compound 0.316 µM, first compound 1 µM
[17] = second compound 0.316 µM, first compound 3.16 µM
[18] = second compound 0.316 µM, first compound 10 µM
[19] = second compound 1 µM, first compound 0.0316 µM
[20] = second compound 1 µM, first compound 0.1 µM
[21] = second compound 1 µM, first compound 0.316 µM
[22] = second compound 1 µM, first compound 1 µM
[23] = second compound 1 µM, first compound 3.16 µM
[24] = second compound 1 µM, first compound 10 µM
[25] = second compound 3.16 µM, first compound 0.0316 µM
[26] = second compound 3.16 µM, first compound 0.1 µM
[27] = second compound 3.16 µM, first compound 0.316 µM
[28] = second compound 3.16 µM, first compound 1 µM
[29] = second compound 3.16 µM, first compound 3.16 µM
[30] = second compound 3.16 µM, first compound 10 µM
[31] = second compound 10 µM, first compound 0.0316 µM
[32] = second compound 10 µM, first compound 0.1 µM
[33] = second compound 10 µM, first compound 0.316 µM
[34] = second compound 10 µM, first compound 1 µM
[35] = second compound 10 µM, first compound 3.16 µM
[36] = second compound 10 µM, first compound 10 µM
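Also: compound exposure lasted seven days before viability was read.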
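For viability, T/C in this document: percent of vehicle DMSO treated spheroid viability so 100% = untreated.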

`CC1(C)CCC(CN2CCN(c3ccc(C(=O)NS(=O)(=O)c4ccc(NCC5CCOCC5)c([N+](=O)[O-])c4)c(Oc4cnc5[nH]ccc5c4)c3)CC2)=C(c2ccc(Cl)cc2)C1` + Cc1nc(NC(=O)N2CCCC2C(N)=O)sc1-c1ccnc(C(C)(C)C(F)(F)F)c1 gave a pIC50 (second compound 0.0316 µM) of 5.17, a pIC50 (second compound 0.1 µM) of 5.13 and a pIC50 (second compound 0.316 µM) of 5.19. For the same compound, the pIC50 (second compound 1 µM) was 5.27, the pIC50 (second compound 3.16 µM) was 5.37 and the pIC50 (second compound 10 µM) was over 7.50. The viability, T/C [1] was 85.1%, the viability, T/C [2] was 97.9% and the viability, T/C [3] was 91.5%. It also gave a viability, T/C [4] of 80.6%, a viability, T/C [5] of 87.7% and a viability, T/C [6] of 30.7%. The viability, T/C [7] was 81.9%, the viability, T/C [8] was 97.5% and the viability, T/C [9] was 89.3%. For the same compound, the viability, T/C [10] was 99.4%, the viability, T/C [11] was 101% and the viability, T/C [12] was 34.6%. For the same compound, the viability, T/C [13] was 96.3%, the viability, T/C [14] was 99% and the viability, T/C [15] was 76.5%. It also gave a viability, T/C [16] of 55.2%, a viability, T/C [17] of 92.4% and a viability, T/C [18] of 29.8%. It also gave a viability, T/C [19] of 82%, a viability, T/C [20] of 75.5% and a viability, T/C [21] of 72.4%. It also gave a viability, T/C [22] of 57.4%, a viability, T/C [23] of 70.8% and a viability, T/C [24] of 25.4%. For the same compound, the viability, T/C [25] was 52.3%, the viability, T/C [26] was 67% and the viability, T/C [27] was 53.5%. It also gave a viability, T/C [28] of 58.6%, a viability, T/C [29] of 60% and a viability, T/C [30] of 26.2%. The viability, T/C [31] was 38.1%, the viability, T/C [32] was 42.1% and the viability, T/C [33] was 36.6%. The viability, T/C [34] was 44.4%, the viability, T/C [35] was 48% and the viability, T/C [36] was 31.4%.

In the case of `C[C@@H](NC(=O)c1ncnc(N)c1Cl)c1ncc(C(=O)Nc2cc(C(F)(F)F)c(Cl)cn2)s1` + Cc1nc(NC(=O)N2CCCC2C(N)=O)sc1-c1ccnc(C(C)(C)C(F)(F)F)c1, the pIC50 (second compound 0.0316 µM) was under 5.00, the pIC50 (second compound 0.1 µM) was under 5.00 and the pIC50 (second compound 0.316 µM) was under 5.00. It also gave a pIC50 (second compound 1 µM) of under 5.00, a pIC50 (second compound 3.16 µM) of 5.18 and a pIC50 (second compound 10 µM) of 6.57. It also gave a viability, T/C [1] of 112%, a viability, T/C [2] of 100% and a viability, T/C [3] of 98.7%. For the same compound, the viability, T/C [4] was 88.1%, the viability, T/C [5] was 90.7% and the viability, T/C [6] was 81.6%. The viability, T/C [7] was 94.1%, the viability, T/C [8] was 108% and the viability, T/C [9] was 101%. For the same compound, the viability, T/C [10] was 115%, the viability, T/C [11] was 95.5% and the viability, T/C [12] was 68.6%. It also gave a viability, T/C [13] of 104%, a viability, T/C [14] of 108% and a viability, T/C [15] of 109%. The viability, T/C [16] was 87.8%, the viability, T/C [17] was 89.8% and the viability, T/C [18] was 78%. It also gave a viability, T/C [19] of 105%, a viability, T/C [20] of 80.4% and a viability, T/C [21] of 87.4%. For the same compound, the viability, T/C [22] was 89.5%, the viability, T/C [23] was 79.9% and the viability, T/C [24] was 68.2%. The viability, T/C [25] was 53.6%, the viability, T/C [26] was 55.6% and the viability, T/C [27] was 79.6%. For the same compound, the viability, T/C [28] was 62%, the viability, T/C [29] was 61.9% and the viability, T/C [30] was 31.2%. The viability, T/C [31] was 50.6%, the viability, T/C [32] was 63.9% and the viability, T/C [33] was 41.4%. For the same compound, the viability, T/C [34] was 44.5%, the viability, T/C [35] was 37.2% and the viability, T/C [36] was 22.8%.

With `Cn1ncnc1[C@H]1c2n[nH]c(=O)c3cc(F)cc(c23)N[C@@H]1c1ccc(F)cc1` + Cc1nc(NC(=O)N2CCCC2C(N)=O)sc1-c1ccnc(C(C)(C)C(F)(F)F)c1 the pIC50 (second compound 0.0316 µM) was under 7.00, the pIC50 (second compound 0.1 µM) was under 7.00 and the pIC50 (second compound 0.316 µM) was under 7.00. The pIC50 (second compound 1 µM) was under 7.00, the pIC50 (second compound 3.16 µM) was 7.79 and the pIC50 (second compound 10 µM) was over 9.50. For the same compound, the viability, T/C (second compound 0.0316 µM, first compound 0.000316 µM) was 83.6%, the viability, T/C (second compound 0.0316 µM, first compound 0.001 µM) was 95.8% and the viability, T/C (second compound 0.0316 µM, first compound 0.00316 µM) was 112%. The viability, T/C (second compound 0.0316 µM, first compound 0.01 µM) was 87.8%, the viability, T/C [1] was 72.1% and the viability, T/C [2] was 99%. The viability, T/C (second compound 0.1 µM, first compound 0.000316 µM) was 81%, the viability, T/C (second compound 0.1 µM, first compound 0.001 µM) was 98.7% and the viability, T/C (second compound 0.1 µM, first compound 0.00316 µM) was 99.9%. For the same compound, the viability, T/C (second compound 0.1 µM, first compound 0.01 µM) was 67.5%, the viability, T/C [7] was 84.2% and the viability, T/C [8] was 83.5%. The viability, T/C (second compound 0.316 µM, first compound 0.000316 µM) was 89.1%, the viability, T/C (second compound 0.316 µM, first compound 0.001 µM) was 67.3% and the viability, T/C (second compound 0.316 µM, first compound 0.00316 µM) was 78%. It also gave a viability, T/C (second compound 0.316 µM, first compound 0.01 µM) of 61.4%, a viability, T/C [13] of 69.7% and a viability, T/C [14] of 78.7%. For the same compound, the viability, T/C (second compound 1 µM, first compound 0.000316 µM) was 62.2%, the viability, T/C (second compound 1 µM, first compound 0.001 µM) was 70% and the viability, T/C (second compound 1 µM, first compound 0.00316 µM) was 67.2%. For the same compound, the viability, T/C (second compound 1 µM, first compound 0.01 µM) was 57.6%, the viability, T/C [19] was 60% and the viability, T/C [20] was 55.4%. The viability, T/C (second compound 3.16 µM, first compound 0.000316 µM) was 63.1%, the viability, T/C (second compound 3.16 µM, first compound 0.001 µM) was 53.7% and the viability, T/C (second compound 3.16 µM, first compound 0.00316 µM) was 46.6%. It also gave a viability, T/C (second compound 3.16 µM, first compound 0.01 µM) of 58.2%, a viability, T/C [25] of 51.7% and a viability, T/C [26] of 42%. The viability, T/C (second compound 10 µM, first compound 0.000316 µM) was 39%, the viability, T/C (second compound 10 µM, first compound 0.001 µM) was 38.7% and the viability, T/C (second compound 10 µM, first compound 0.00316 µM) was 43.8%. The viability, T/C (second compound 10 µM, first compound 0.01 µM) was 33%, the viability, T/C [31] was 50.5% and the viability, T/C [32] was 38.5%.
